Test results: US11845084B2, “Microchip high density hanging drop three-dimension culture platform” (The Board of Trustees of the University of Illinois, priority 2020, dated 2023)

Columns and labels:
[1] = test system: LN229 microcancer spheroids; assay: On-chip drug testing of LN229 microcancer spheroids in microchip hanging drop 3D culture; format: cell-based; conditions: Homo sapiens, LN-229; measured on day 9 post cell seeding; drug loaded on day 3; 500 cells/well; 12 wells per concentration, 10 uM to 100 pM
From the text: In contrast, conventional hanging drop methods used to extract the formed tumor spheroids and then performing an end-point only analysis in a separate well plate. Dasatinib was selected for drug testing, and introduced after 3 days of culture in the chip. […] One process for introducing the drugs on chip is as follows. The chip was kept upright inside mineral oil and centrifuged briefly to bring down the spheroids. Next, appropriate volume of media with drugs is loaded on chip through oil and incubated for 30 minutes to reach a homogeneous concentration. […] The chip was partitioned as before by using oil, inverted, and daily measurements of green and red fluorescence were taken. […]
The total number of cells were extracted from the off-chip culture into a 1.7 mL tube and then centrifuged at 200 g for 5 min so that all cells settle to the bottom of the tube. […] To stop the PKH 26 Red Fluorescence staining, media with FBS was added to the cell and dye solution. […]
Spheroid Imaging: Real time imaging was done daily after seeding with an upright Olympus BX63 fluorescence microscope with a 10× objective (0.3 NA). […] Tiles and Z-stacks of 10 um slice thickness of the area with spheroids or shapes were taken of chips in bright-field, GFP and RFP fluorescence wavelengths. The CellTox green fluorescence dye was captured using the GFP fluorescence and the PKH Red dye was captured using the RFP. […]

[2] = test system: PDX microcancers (GBM8 patient-derived xenograft glioblastoma cells); assay: On-chip drug testing of PDX microcancer spheroids in microchip hanging drop 3D culture; format: cell-based; conditions: Homo sapiens; measured on day 9 post cell seeding; drug loaded on day 3; 500 cells/well; 12 wells per concentration, 10 uM to 100 pM
Experimental: The harvest cells from the xenograft represented the cellular diversity of the PDX brain tumor.
Dasatinib was selected for drug testing, and introduced after 3 days of culture in the chip. […] One process for introducing the drugs on chip is as follows. The chip was kept upright inside mineral oil and centrifuged briefly to bring down the spheroids. Next, appropriate volume of media with drugs is loaded on chip through oil and incubated for 30 minutes to reach a homogeneous concentration. The volume of drugs loaded depends on the number of spheroids being cultured or wells filled with media on chip, which in turn, are defined by the size and numbers of PDMS reservoirs initially used for cell seeding. The volume of media with drugs added is usually 5 times the volume of wells containing spheroids. […] The chip was partitioned as before by using oil, inverted, and daily measurements of green and red fluorescence were taken.

For `Cc1nc(Nc2ncc(C(=O)Nc3c(C)cccc3Cl)s2)cc(N2CCN(CCO)CC2)n1` [Dasatinib], the IC50 [1] was 95.9 nM and the IC50 [2] was 13.8 nM.
